Test [1] deals with A2E formation from all-trans-retinal and ethanolamine. Nature of the test: In vitro A2E formation in the presence of aromatic amine. How it is done:
100 mg (355 μmoles) of all-trans-retinal was dissolved in 3 mL followed by the addition of 9.5 μL of glacial acetic acid 9.5 μL of ethanolamine (155 μmoles). This solution was aliquoted into 300 μL fractions. 3-aminoethylbenzoate (15.5 μmoles) was added to the samples at 0, 2, 3.75, 14, 16.25, 18.0833 19.917 23.75 and 48 hrs. […] The solutions were shaken at room temperature for 48 hrs. The solutions were then kept at −80° C. and 15 μL was diluted to 250 μL (methanol). The solutions (15 μL) were then analyzed on a reverse phase (C18-5 μm-4.6 mm×150 mm) column on a linear gradient 85%-96% methanol/water and UV detector at 430 nm to determine the amount of A2E formation. The percent A2E formation was compared to A2E formation at 48 h in the absence of aromatic amine.

Another test deals with abcr knockout mice. Description: In vivo A2E accumulation in abcr knockout mice. The conditions noted are these: versus no drug. As to the method: Effects on accumulation of A2E in abcr knockout mice by farnesyl decyl ketone and N-palmityl farnesimide were investigated. Mice were injected with 50 mg/kg drug in 25 microliters of DMSO or with only DMSO for the control group once or twice a week. After 2 to 2½ months, the mice were sacrificed, and A2E and iso-A2E were harvested and quantitated from 4 eyes for each drug or control.

Test [2] relates to bovine retinal pigment epithelial membrane system (11-cis-retinol formation). Description: 11-cis-retinol formation in RPE membranes (IMH activity / RPE65 function). In kind it is biochemical. As to the method: A control reaction mixture without any inhibitor was also incubated at room temperature for 15 min. At the end of the 15 min incubation, all-trans-retinol [11-12-^3H2] (0.2 μM) was added to the reaction mixtures (100 mM Tris pH 8.0, […] of RPE protein, 0.2% BSA 100 μM of DPPC, 1 mM of DTT and 0.2 μM all-trans-retinol [11-12-^3H2]) and incubated at room temperature for 30 min. At the end of this 30 minutes of incubation, an aliquot of the reactions were quenched to verify the equal addition of all-trans-retinol [11,12-^3H2] and the effect of these inhibitors on LRAT. After this the control reaction mixture was incubated with atRA (60 & 6 μM), 13cRA (60 & 6 μM) or 4-HPR (60 & 6 μM) for 15 min. Now all the reaction mixtures were incubated with 30 μM of apo-rCRALBP (100 mM Tris pH 8.0, 7.7 μg of RPE protein, 0.2% BSA 100 μm of DPPC, 1 mM of DTT 30 μM apo-rCRALBP and 0.2 μM all-trans-retinol [11-12-^3H2]) at 37° C. for 30 minutes. At the end of this incubation period the 200 μL reaction mixture was quenched by the addition of 750 μL ice cold methanol after which 100 μL of 1M sodium chloride solution was added, and 500 μl hexane (containing butylated hydroxy toluene at 1 mg/mL) was added to effect extraction of the retinoids. The retinoids were analyzed as previously described (27). The amount of 11-cis-retinol formed was used as a measurement of IMH activity. All experiments were performed in triplicate and the average values of these measurements were used for analysis.
A control reaction mixture without any inhibitor was also incubated at room temperature for 15 min. At the end of the 15 min incubation, all-trans-retinol [11-12-^3H2] (0.2 μM) was added to the reaction mixtures (100 mM Tris pH 8.0, 76.7 μg of RPE protein, 0.2% BSA 100 μM of DPPC, 1 mM of DTT and 0.2 μM all-trans-retinol [11-12-^3H2]) and incubated at room temperature for 30 min. […] The retinoids were analyzed as previously described (27). […]

The target in a further test is T1, tLRAT (Homo sapiens, UniProt O95237).
T1 construct: This form of LRAT has the two N and C-terminal transmembrane domains of LRAT truncated, and is His-tagged; made in house
T1 sequence (O95237 31-196 limits assumed): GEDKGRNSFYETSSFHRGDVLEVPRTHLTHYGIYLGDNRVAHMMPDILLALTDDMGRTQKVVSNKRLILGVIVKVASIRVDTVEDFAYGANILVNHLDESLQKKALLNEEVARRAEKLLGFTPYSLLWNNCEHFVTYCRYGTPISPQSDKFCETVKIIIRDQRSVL
Nature of the test: mRPE65 concentration-dependent esterification of vitamin A by tLRAT. To be noted: FIG. 11C. In kind it is biochemical. How it is done:
Effect of sRPE65 on tLRAT mediated esterification: The activity of LRAT was determined by monitoring the formation of tLRAT catalyzed retinyl esters from added all-trans-retinol [11,12-^3H2] sRPE65 and/or DPPC/dodecyl maltoside. In all of the studies reported here truncated LRAT (tLRAT) is used (Jahng et al., 2003b). This form of LRAT has the two N and C-terminal transmembrane domains of LRAT truncated, and is His-tagged which allows for the bacterial expression of LRAT and for its full purification (Bok et al., 2003). LRAT has never been purified and is not expressible in bacteria. Kinetic studies on LRAT and tLRAT show them to behave identically (Bok et al., 2003). […] The amount of all-trans-retinyl palmitate [11,12-^3H2] formed as determined by normal phase HPLC and was used as a measure of activity. […]
mRPE65 concentration-dependent esterification of vitamin A: The effect of mRPE65 concentration on the rates of all-trans-retinyl palmitate formation was determined by monitoring the tLRAT catalyzed formation of all-trans-retinyl palmitate from added [11,12-^3H2]-all-trans-retinol and mRPE65. […] The amount of all-trans-retinyl palmitate [11,12-^3H2] formed as determined by normal phase-HPLC and was used as a measure of activity. The kinetic paramaters KM (Kapp) and N were calculated as described before (Segal 1993). […]

Regarding `CCOC(=O)c1cccc(N)c1` [3-aminoethylbenzoate, ethyl 3-aminobenzoate], the “A2E % formation (48 Hrs = 100)” value in test [1] (amine added at 0 hrs) was found to be 3.98%; in test [1] (amine added at 2 hrs), 8.67%; in test [1] (amine added at 3.75 hrs) it was 7.71%; in test [1] (amine added at 14 hrs), 19.73%; in test [1] (amine added at 16.25 hrs), 19.25%; in test [1] (amine added at 18.0833 hrs), 23.70%. Besides, the figures for the “A2E % formation (48 Hrs = 100)” value in test [1] (amine added at 19.91667 hrs), in test [1] (amine added at 23.75 hrs) and in test [1] (amine added at 48 hrs) were 27.65%, 22.44% and 100.00%, respectively.

In the case of `CCCCCCCCCCC(=O)CC=C(C)CCC=C(C)CCC=C(C)C` [Farnesyl decyl ketone, farnesyl decyl ketone], the “reduction of total accumulation” value in the test on abcr knockout mice was “about 80%”.

For `CC1=C(/C=C/C(C)=C/C=C/C(C)=C/C(=O)Nc2ccc(O)cc2)C(C)(C)CCC1` [N-(4-hydroxyphenyl)retinamide], the “inhibition of 11-cis-retinol formation, pre-incubation with inhibitor” value in test [2] (60 μM or 6 μM, pre-incubation before vitamin A, FIG. 8) is listed as “substantially weaker”.

As to `CCCCCCCCCCCCCCCCNC(=O)C/C=C(\C)CC/C=C(\C)CCC=C(C)C` [N-Palmityl farnesimide, palmityl farnesimide], in the test on abcr knockout mice, the “reduction of total accumulation” value is given as “about 47%”.

Consider `CC1=C(/C=C/C(C)=C/C=C/C(C)=C/C(=O)O)C(C)(C)CCC1` [all-trans-retinoic acid], for which the “inhibition of 11-cis-retinol formation, membranes pre-incubated with vitamin A before inhibitor” value in test [2] (60 μM, data not shown) is on record as “not susceptible to inhibition”.

B1: mRPE65: membrane-associated, palmitoylated form of RPE65; acts as palmitoyl donor for LRAT (protein, UniProt Q16518 2-533, looked up)
Retinoid isomerohydrolase: SIQVEHPAGGYKKLFETVEELSSPLTAHVTGRIPLWLTGSLLRCGPGLFEVGSEPFYHLFDGQALLHKFDFKEGHVTYHRRFIRTDAYVRAMTEKRIVITEFGTCAFPDPCKNIFSRFFSYFRGVEVTDNALVNVYPVGEDYYACTETNFITKINPETLETIKQVDLCNYVSVNGATAHPHIENDGTVYNIGNCFGKNFSIAYNIVKIPPLQADKEDPISKSEIVVQFPCSDRFKPSYVHSFGLTPNYIVFVETPVKINLFKFLSSWSLWGANYMDCFESNETMGVWLHIADKKRKKYLNNKYRTSPFNLFHHINTYEDNGFLIVDLCCWKGFEFVYNYLYLANLRENWEEVKKNARKAPQPEVRRYVLPLNIDKADTGKNLVTLPNTTATAILCSDETIWLEPEVLFSGPRQAFEFPQINYQKYCGKPYTYAYGLGLNHFVPDRLCKLNVKTKETWVWQEPDSYPSEPIFVSHPDALEEDDGVVLSVVVSPGAGQKPAYLLILNAKDLSEVARAEVEINIPVTFHGLFKKS
modifications: palmitoylated membrane-associated form
notes: membrane-associated, palmitoylated form of RPE65; acts as palmitoyl donor for LRAT
Turning to B1, in the test with tLRAT, the “Hill plot N” value worked out at 2.54.

Source of the values: patent publication US7566808B2, “Management of ophthalmologic disorders, including macular degeneration” (President and Fellows of Harvard College, priority 2004, dated 2009).
